From patent US20260035338A1, “AMINO LIPID COMPOUND AND LIPID NANOPARTICLE FOR DELIVERING BIOACTIVE INGREDIENT” (SHENZHEN SHENXIN BIOTECHNOLOGY CO., LTD., priority 2022, published 2026) come the findings set out here.

The experiment relates to BALB/c mice. The experiment in a line: In vivo delivery of Fluc mRNA-encapsulating LNP formulations, luciferase signal by In Vivo Imaging System (IVIS). As to conditions: tail vein injection (IV) 70 μL, female BALB/c mice, 6 hours after injection; for Average number of photons (Total in-vivo flux): LNP formulation encapsulating Fluc mRNA (Lipid:DSPC:CHO-HP:M-DMG-2000 48:10:40.5:1.5); for Average number of photons (Liver) / Average number of photons (Spleen): LNP formulation encapsulating Fluc mRNA. How it is done: Animal preparation: Female BALB/c mice of 6-8 weeks old were selected and raised in an SPF grade breeding room. Animal testing was conducted in strict accordance with the guidelines of national health institutions and animal ethics requirements.
In vivo Delivery: prior to injection of the test LNP formulation, the LNP formulation was gently and repeatedly inverted to thoroughly mix the sample of the formulation. A corresponding amount of the LNP formulation was aspirated with a 1 ml insulin syringe, and the LNP formulation was injected by tail vein injection (IV), with 3 mice in duplicate per formulation. Each mouse was injected with 70 μL of the corresponding LNP formulation encapsulating the luciferase mRNA (Fluc mRNA) prepared in Experimental Example 1.
6 hours after injection of LNP formulations, mice were injected with 200 μL D-Luciferin luciferase developing substrate (Catalog No. 122799; Manufacturer: Perkin Elmer). After the substrate was injected, the mice were anesthetized with isoflurane inhalation, and the injection time of luciferase developing substrate was recorded.
The encapsulation efficiency of the lipid nanoparticle encapsulating luciferase mRNA (Fluc mRNA) with a representative amino lipid compound and the fluorescence expression intensity induced by the same are shown in Table 4, with the LNP formulation containing SM-102, 1001 or ALC-0315 as a control LNP formulation. The preparation method of the control LNP formulation was basically the same as that of the LNP formulations in Experimental Example 1, with the difference lying in that the amino lipid compounds of the present disclosure were replaced with SM-102, 1001 or ALC-0315 in the preparation of the control LNP formulation.

As to `CCCCCCCCC(CCCCCC)C(=O)OCCCCCCN(CCCCO)CCCCCCOC(=O)C(CCCCCC)CCCCCCCC` (stereo not drawn) [ALC-0315, reference compound], the “Average number of photons (Total in-vivo flux)” value was found to be 6.39E+08, the “Average number of photons (Liver)” value came to 1.23E+08 and the “Average number of photons (Spleen)” value was 3.45E+06.
In the case of `CCCCCCCCCCCOC(=O)CCCCCN(CCO)CCCCCCCC(=O)OC(CCCCCCCC)CCCCCCCC` [SM-102, reference compound], the “Average number of photons (Total in-vivo flux)” value amounted to 3.00E+08, the “Average number of photons (Liver)” value is listed as 6.19E+07 and the “Average number of photons (Spleen)” value turned out to be 6.42E+06.
As for `CCCCCCOC(CCCOC(=O)CCCCCCCCC(CCCCCCCCC(=O)OCCCC(OCCCCCC)OCCCCCC)OC(=O)N(CCCC(=O)OCCCCC)CCCN(C)C)OCCCCCC` [compound 380], the “Average number of photons (Total in-vivo flux)” value is 4.05E+08, the “Average number of photons (Liver)” value is 7.25E+07 and the “Average number of photons (Spleen)” value is on record as 6.79E+07.
With `CCCCCCCOC(CCCOC(=O)CCCCCCCCC(CCCCCCCCC(=O)OCCCC(OCCCCCCC)OCCCCCCC)OC(=O)N(CCCC(=O)OCCCCC)CCCN(C)C)OCCCCCCC` [compound 381], the “Average number of photons (Total in-vivo flux)” value came out at 2.46E+08, the “Average number of photons (Liver)” value was 4.40E+07 and the “Average number of photons (Spleen)” value came to 1.96E+07.
As for `CCCCCCCOC(CCCOC(=O)CCCCCCCCC(CCCCCCCCC(=O)OCCCC(OCCCCCCC)OCCCCCCC)OC(=O)OCCCN(CC)CC)OCCCCCCC` [compound 383], the “Average number of photons (Total in-vivo flux)” value was 6.10E+07, the “Average number of photons (Liver)” value was found to be 8.57E+06 and the “Average number of photons (Spleen)” value is recorded as 1.53E+06.
On to `CCCCCOC(CCCOC(=O)CCCCCCCCC(CCCCCCCCC(=O)OCCCC(OCCCCC)OCCCCC)OC(=O)OCCCN(CC)CC)OCCCCC` [compound 387], for which the “Average number of photons (Total in-vivo flux)” value was found to be 6.66E+07, the “Average number of photons (Liver)” value was 7.15E+06 and the “Average number of photons (Spleen)” value is given as 6.77E+05.
Regarding `CCCCCCOC(CCCCCOC(=O)CCCCCCCCC(CCCCCCCCC(=O)OCCCCCC(OCCCCCC)OCCCCCC)OC(=O)OCCCN(CC)CC)OCCCCCC` [compound 389], the “Average number of photons (Total in-vivo flux)” value is recorded as 2.99E+07, the “Average number of photons (Liver)” value worked out at 4.14E+06 and the “Average number of photons (Spleen)” value turned out to be 8.58E+04.
As to `CCCCCOC(CCCCCOC(=O)CCCCCCCCC(CCCCCCCCC(=O)OCCCCCC(OCCCCC)OCCCCC)OC(=O)OCCCN(CC)CC)OCCCCC` [compound 390], the “Average number of photons (Total in-vivo flux)” value is given as 5.23E+07, the “Average number of photons (Liver)” value was 7.04E+06 and the “Average number of photons (Spleen)” value is on record as 3.84E+05.
Turning to `CCC/C=C\COC(CCCOC(=O)CCCCCCCCC(CCCCCCCCC(=O)OCCCC(OC/C=C\CCC)OC/C=C\CCC)OC(=O)OCCCN(CC)CC)OC/C=C\CCC` [compound 392], the “Average number of photons (Total in-vivo flux)” value came out at 8.20E+07, the “Average number of photons (Liver)” value stood at 1.50E+07 and the “Average number of photons (Spleen)” value came out at 6.65E+05.
Regarding `CCCCCCOC(CCCOC(=O)CCCCCCCCC(CCCCCCCCC(=O)OCCCC(OCCCCCC)OCCCCCC)NC(=O)OCCCN(CC)CC)OCCCCCC` [compound 393], the “Average number of photons (Total in-vivo flux)” value stood at 2.80E+08, the “Average number of photons (Liver)” value is 5.44E+07 and the “Average number of photons (Spleen)” value was 1.00E+07.
`CCCCCCOC(CCCOC(=O)CCCCCCCCC(CCCCCCCCC(=O)OCCCC(OCCCCCC)OCCCCCC)OC(=O)OCCCN1CCCC1)OCCCCCC` [compound 396]: the “Average number of photons (Total in-vivo flux)” value was found to be 1.85E+08, the “Average number of photons (Liver)” value is given as 3.24E+07 and the “Average number of photons (Spleen)” value amounted to 9.78E+05.
As for `CCCCCCOC(CCCOC(=O)CCCCCCCCC(CCCCCCCCC(=O)OCCCC(OCCCCCC)OCCCCCC)OC(=O)OCCC1CCCN1C)OCCCCCC` (stereo not drawn) [compound 398], the “Average number of photons (Total in-vivo flux)” value is given as 1.79E+08, the “Average number of photons (Liver)” value came out at 2.78E+07 and the “Average number of photons (Spleen)” value amounted to 6.36E+05.
On to `CCCCCCOC(CCCOC(=O)CCCCCCCCC(CCCCCCCCC(=O)OCCCC(OCCCCCC)OCCCCCC)OC(=O)NCCCN1CCCCC1C)OCCCCCC` (stereo not drawn) [compound 399], for which the “Average number of photons (Total in-vivo flux)” value amounted to 9.00E+07, the “Average number of photons (Liver)” value came to 1.96E+07 and the “Average number of photons (Spleen)” value worked out at 2.05E+06.
Take `CCCCCCOC(CCCOC(=O)CCCCCCCCC(CCCCCCCCC(=O)OCCCC(OCCCCCC)OCCCCCC)OC(=O)OCC1CCCN(C)C1)OCCCCCC` (stereo not drawn) [compound 416]: the “Average number of photons (Total in-vivo flux)” value is 2.16E+08, the “Average number of photons (Liver)” value was found to be 5.13E+07 and the “Average number of photons (Spleen)” value was found to be 3.99E+06.
In the case of `CCCCCCCCC(=O)OCCCCCCCCOC(=O)CCCCCCCCC(CCCCCCCCC(=O)OCCCC(OCCCCCC)OCCCCCC)OC(=O)OCCCN(CC)CC` (stereo not drawn) [compound 433], the “Average number of photons (Total in-vivo flux)” value was determined as 2.56E+07, the “Average number of photons (Liver)” value was determined as 3.83E+06 and the “Average number of photons (Spleen)” value is 2.44E+05.
For the compound `CCCCCCCCC(CCCCCCCC)OC(=O)CCCCCCCOC(=O)CCCCCCCCC(CCCCCCCCC(=O)OCCCC(OCCCCCC)OCCCCCC)OC(=O)OCCCN(CC)CC` (stereo not drawn) [compound 434], the “Average number of photons (Total in-vivo flux)” value was 2.50E+07, the “Average number of photons (Liver)” value came out at 3.52E+06 and the “Average number of photons (Spleen)” value is 1.40E+05.
Consider `CCCCCCOC(CCCOC(=O)CCCCCCCCC(CCCCCCCCC(=O)OCCCCCCCC(=O)OCC)OC(=O)OCCCN(CC)CC)OCCCCCC` (stereo not drawn) [compound 436], for which the “Average number of photons (Total in-vivo flux)” value is 2.50E+07, the “Average number of photons (Liver)” value came out at 6.68E+06 and the “Average number of photons (Spleen)” value is given as 5.08E+05.
Taken in the same sequence, the figures for `CCCCCCC#CCCOC(=O)CCCCCCCOC(=O)CCCCCCCCC(CCCCCCCCC(=O)OCCCC(OCCCCCC)OCCCCCC)OC(=O)OCCCN(CC)CC` (stereo not drawn) [compound 437] were 1.66E+07, 2.66E+06 and 2.62E+06.
For the compound `CCC/C=C\COC(=O)CCCOC(=O)CCCCCCCCC(CCCCCCCCC(=O)OCCCC(OC/C=C\CCC)OC/C=C\CCC)OC(=O)OCCCN(CC)CC` (stereo not drawn) [compound 438], the “Average number of photons (Total in-vivo flux)” value was 5.78E+07, the “Average number of photons (Liver)” value stood at 8.47E+06 and the “Average number of photons (Spleen)” value is given as 1.07E+06.
Regarding `CCCCCCCC#CCOC(CCCOC(=O)CCCCCCCCC(CCCCCCCCC(=O)OCCCCCCCCCCOC)OC(=O)OCCCN(CC)CC)OCC#CCCCCCCC` (stereo not drawn) [compound 439], the “Average number of photons (Total in-vivo flux)” value turned out to be 5.87E+07, the “Average number of photons (Liver)” value amounted to 1.25E+07 and the “Average number of photons (Spleen)” value came out at 1.96E+06.
For the compound `CCCCCCOCCCCOC(=O)CCCCCCCCC(CCCCCCCCC(=O)OCCCC(OCCCCCC)OCCCCCC)OC(=O)OCCCN(CC)CC` (stereo not drawn) [compound 440], the “Average number of photons (Total in-vivo flux)” value is 2.30E+08, the “Average number of photons (Liver)” value is reported as 3.22E+07 and the “Average number of photons (Spleen)” value is reported as 2.14E+06.
Taken in the same sequence, the figures for `CCCCCCCCC(=O)OCCCCCCCCOC(=O)CCCCCCCCC(CCCCCCCCC(=O)OCCCC(OCCCCCC)OCCCCCC)OC(=O)OCCCN(CC)CC` (stereo not drawn) [compound 441] were 3.09E+07, 5.62E+06 and 5.52E+05.
In the case of `CCCCCCCCOCCCC(=O)N(CCCN(C)C)C(CCCCCCCCC(=O)OCCCC(OCCCCCC)OCCCCCC)CCCCCCCCC(=O)OCCCC(OCCCCCC)OCCCCCC` [compound 449], the “Average number of photons (Total in-vivo flux)” value turned out to be 1.65E+08, the “Average number of photons (Liver)” value came out at 2.94E+07 and the “Average number of photons (Spleen)” value was 7.31E+06.
For the compound `CCCCCCOC(CCCOC(=O)CCCCCCCCC(CCCCCCCCC(=O)OCCCC(OCCCCCC)OCCCCCC)N(CCCN(C)C)C(=O)COC)OCCCCCC` [compound 450], the “Average number of photons (Total in-vivo flux)” value is listed as 4.38E+07, the “Average number of photons (Liver)” value worked out at 7.96E+05 and the “Average number of photons (Spleen)” value is 3.18E+06.
Taken in the same sequence, the figures for `CCCCCCOC(CCCOC(=O)CCCCCCCCC(CCCCCCCCC(=O)OCCCC(OCCCCCC)OCCCCCC)N(CCCN(C)C)C(C)=O)OCCCCCC` [compound 451] were 2.86E+07, 4.63E+06 and 1.74E+07.
Taken in the same sequence, the figures for `CCCCCCOC(CCCOC(=O)CCCCCCCCC(CCCCCCCCC(=O)OCCCC(OCCCCCC)OCCCCCC)N(CCCN(C)C)C(=O)CCC)OCCCCCC` [compound 452] were 3.27E+08, 4.94E+07 and 2.22E+07.
Regarding `CCCCCCOC(CCCOC(=O)OCCCCCCCCCC(CCCCCCCCCOC(=O)OCC(OCCCCCC)OCCCCCC)OC(=O)OCCCN(CC)CC)OCCCCCC` (stereo not drawn) [compound 457], the “Average number of photons (Total in-vivo flux)” value stood at 1.43E+07, the “Average number of photons (Liver)” value was determined as 1.55E+06 and the “Average number of photons (Spleen)” value is 2.70E+06.
